According to the NIST ThermoML archive (doi:10.1016/j.fluid.2014.03.004):

Settings: 101.33 kPa, Liquid; for mass density: Vibrating tube method; for electrical conductivity: Alternating current cell with electrodes; for viscosity: Falling or rolling sphere viscometry

CCCC[n+]1ccn(C2CCCC2)c1.O=S(=O)([N-]S(=O)(=O)C(F)(F)F)C(F)(F)F
Settings | electrical conductivity [S/m] | mass density [kg/m3] | viscosity [mPa·s]
293.15 K | – | 1383.1 | –
298.15 K | 0.197 | 1378.52 | 85.1
303.15 K | – | 1373.96 | 67.9
303.16 K | 0.246 | – | –
313.15 K | 0.361 | 1364.86 | 44.3
323.15 K | 0.504 | 1355.84 | 30.8
333.15 K | 0.668 | 1346.87 | 22.3
343.15 K | 0.878 | 1337.96 | 16.7
353.15 K | 1.11 | 1329.11 | 13

CCCCn1cc[n+](CCC(C)C)c1.O=S(=O)([N-]S(=O)(=O)C(F)(F)F)C(F)(F)F
Settings | electrical conductivity [S/m] | mass density [kg/m3] | viscosity [mPa·s]
293.15 K | – | 1322.37 | –
298.15 K | 0.145 | 1318.1 | 93
303.15 K | – | 1313.65 | 73.2
303.16 K | 0.182 | – | –
313.15 K | 0.273 | 1304.82 | 46.5
323.15 K | 0.389 | 1296.03 | 31.5
333.15 K | 0.529 | 1287.3 | 22.4
343.15 K | 0.694 | 1278.62 | –
353.15 K | – | 1269.99 | 12.6
353.16 K | 0.883 | – | –

CCCCC[n+]1ccn(CCCC)c1.O=S(=O)([N-]S(=O)(=O)C(F)(F)F)C(F)(F)F
Settings | electrical conductivity [S/m] | mass density [kg/m3] | viscosity [mPa·s]
293.15 K | – | 1322.07 | –
298.15 K | 0.164 | 1317.6 | 75.9
303.15 K | – | 1313.16 | 61.5
303.16 K | 0.205 | – | –
313.15 K | 0.303 | 1304.29 | 40.3
323.15 K | 0.427 | 1295.48 | 28
333.15 K | 0.58 | 1286.72 | 20.2
343.15 K | 0.757 | 1278.02 | –
353.15 K | – | 1269.36 | 11.6
353.16 K | 0.96 | – | –
